Results published in PMC3773341 (Biology Open, 2013).

Columns and labels:
[1] = biological target: T1, BK channel (large-conductance Ca2+-activated K+ channel, BKCa, KCa1.1) (Homo sapiens, UniProt Q12791); experiment: whole-cell patch clamp of endogenous BK current in LNCaP cells; current identity confirmed by si-hBK; format: cell-based
T1 construct: gene KCNMA1

[2] = biological target: T1, BK channel (large-conductance Ca2+-activated K+ channel, BKCa, KCa1.1); experiment: whole-cell patch clamp of T-type-activated BK current in LNCaP-α1H cells ([…] in LNCaP-NE cells); format: cell-based

T1 sequence (Q12791 whole entry): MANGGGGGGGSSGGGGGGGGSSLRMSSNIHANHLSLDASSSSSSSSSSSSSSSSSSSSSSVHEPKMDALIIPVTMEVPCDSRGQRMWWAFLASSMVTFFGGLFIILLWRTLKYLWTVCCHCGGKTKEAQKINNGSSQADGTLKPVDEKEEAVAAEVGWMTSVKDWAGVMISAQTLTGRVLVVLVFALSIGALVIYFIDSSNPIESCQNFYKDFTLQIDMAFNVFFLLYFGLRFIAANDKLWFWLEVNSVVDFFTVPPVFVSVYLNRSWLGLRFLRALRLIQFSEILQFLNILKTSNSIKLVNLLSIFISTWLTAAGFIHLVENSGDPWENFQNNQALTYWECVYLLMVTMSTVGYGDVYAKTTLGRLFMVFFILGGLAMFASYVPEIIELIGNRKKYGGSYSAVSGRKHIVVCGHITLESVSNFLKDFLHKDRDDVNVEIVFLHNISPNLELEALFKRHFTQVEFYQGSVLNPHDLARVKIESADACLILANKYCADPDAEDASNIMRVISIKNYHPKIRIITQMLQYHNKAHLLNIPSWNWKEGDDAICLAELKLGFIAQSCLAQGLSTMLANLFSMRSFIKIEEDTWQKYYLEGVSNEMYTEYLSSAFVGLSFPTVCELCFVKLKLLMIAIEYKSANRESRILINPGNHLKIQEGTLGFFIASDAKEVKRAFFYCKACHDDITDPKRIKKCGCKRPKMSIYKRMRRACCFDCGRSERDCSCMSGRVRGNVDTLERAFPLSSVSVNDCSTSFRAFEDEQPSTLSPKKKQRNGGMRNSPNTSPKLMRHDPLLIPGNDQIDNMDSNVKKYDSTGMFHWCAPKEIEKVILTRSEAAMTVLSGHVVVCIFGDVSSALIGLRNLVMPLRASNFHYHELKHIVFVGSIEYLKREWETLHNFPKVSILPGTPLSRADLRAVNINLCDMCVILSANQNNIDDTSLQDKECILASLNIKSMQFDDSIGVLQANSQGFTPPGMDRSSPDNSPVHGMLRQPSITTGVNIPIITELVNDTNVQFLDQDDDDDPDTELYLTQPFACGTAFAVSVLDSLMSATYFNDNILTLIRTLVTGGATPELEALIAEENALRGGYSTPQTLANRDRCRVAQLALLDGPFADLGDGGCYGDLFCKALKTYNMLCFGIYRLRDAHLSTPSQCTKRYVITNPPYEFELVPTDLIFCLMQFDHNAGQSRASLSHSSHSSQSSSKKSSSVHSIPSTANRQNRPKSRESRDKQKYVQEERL

Compound	whole-cell patch clamp of endogenous BK current in LNCaP cells; current identity [1] [µM]	IC50 [2] [µM]
CC(C)(O)[C@H]1O[C@H]2CC[C@@]3(C)[C@@](O)(CC[C@H]4Cc5c([nH]c6ccccc56)[C@@]43C)C2=CC1=O [Pax, paxillin]	1	–
CC[N+](CC)(CC)CC [TEA, tetraethyl ammonium]	–	1140 ± 200
